{"source": "paper PMC4792161", "about": "“A novel pyrazole derivative protects from ovariectomy-induced osteoporosis through the inhibition of NADPH oxidase” (Scientific Reports, 2016)", "key": {"BMMs [1]": {"system": "BMMs", "assay": "Phagocytosis assay, FITC-zymosan uptake", "assay_type": "cell-based, C57BL/6 mice", "details": "pretreated 1 hour", "experimental": "After the incubations, cells were washed three times with PBS, and the quantities of internalized fluorescent particles were determined by flow cytometry. FITC-zymosan uptake was quantified as mean fluorescence intensity (MFI).\n(§1) Supplementary Figure S3. (A) Ewha-18278 compounds can not directly scavenge superoxide or other reactive species in vitro. ROS (H2O2) measured with lucigenin. Reaction mixtures contained 1 […]\n(§2) Luminescence measured over 30 min at 37\n(§3) °C with luminometor (Gloma X luminometor, Turner BioSystem). […]\n(§4) the phagocytosis of zymosan. […]\n(§5) incubated with FITC-zymosan particles, and internalized fluorescence was measured by flow cytometry. The data are presented as the MFI of internalized FITC. Data represent mean ± S.D. […]"}, "Mature OCs [2]": {"system": "Mature OCs", "assay": "TUNEL assay, apoptosis of OCs", "assay_type": "cell-based", "details": "10 μM, absence or presence of RANKL", "experimental": "Apoptotic cells were detected by the […] nick end labeling (TUNEL) assay In Situ Cell Death Detection Kit (Roche Applied Science, Basel, Switzerland) according to the manufacturer’s instructions. […] The percentage of positively stained cells was determined by counting the numbers of TUNEL labeled and DAPI stained cells. The experiments were repeated 3 times, and the mean values were calculated.\nSupplementary Figure S5. […] Mature OCs were\ngenerated with M-CSF and RANKL. Cells were washed with PBS and then treated with Ewha-18278\n(10 μM) or DMSO with or without RANKL for 20 hours. Cells were subjected into TUNEL assay. Data […]"}, "glucose oxidase": {"target": "glucose oxidase (Aspergillus niger, UniProt P13006)", "sequence (P13006 17-605, species assumed)": "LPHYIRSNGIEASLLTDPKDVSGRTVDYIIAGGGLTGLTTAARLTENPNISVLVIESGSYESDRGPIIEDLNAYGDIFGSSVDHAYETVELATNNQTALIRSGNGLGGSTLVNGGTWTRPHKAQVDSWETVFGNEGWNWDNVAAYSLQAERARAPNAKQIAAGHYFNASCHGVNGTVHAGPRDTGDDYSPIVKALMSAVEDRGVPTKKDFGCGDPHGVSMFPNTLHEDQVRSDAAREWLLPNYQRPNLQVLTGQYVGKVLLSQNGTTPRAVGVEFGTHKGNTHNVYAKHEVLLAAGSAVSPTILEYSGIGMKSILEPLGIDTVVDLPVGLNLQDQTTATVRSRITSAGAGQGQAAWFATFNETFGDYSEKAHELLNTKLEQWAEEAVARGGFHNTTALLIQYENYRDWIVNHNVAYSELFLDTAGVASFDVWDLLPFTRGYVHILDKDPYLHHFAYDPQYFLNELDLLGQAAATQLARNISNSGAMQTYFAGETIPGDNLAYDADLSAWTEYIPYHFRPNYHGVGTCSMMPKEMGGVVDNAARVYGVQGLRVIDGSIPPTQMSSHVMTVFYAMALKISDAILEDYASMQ", "assay": "Glucose oxidase assay (lucigenin)", "assay_type": "biochemical", "experimental": "Glucose oxidase activity was measured by lucigenin. Reaction mixtures contained 0.75 mM glucose, 0.25 mg/ml glucose oxidase, and 0.4 mM lucigenin with the indicated inhibitor (0–20μM). Luminescence was measured over 30 min at 37 °C with luminometor (DTX800, Beckman coulter)."}, "[3]": {"system": "OVX-induced osteoporotic ddY mice", "assay": "Tibia histopathology-histomorphometry in OVX mice", "assay_type": "in vivo"}, "BMMs [4]": {"system": "BMMs", "assay": "RANKL-induced intracellular ROS generation (DCF fluorescence)", "assay_type": "cell-based, C57BL/6 mice", "text": "RANKL-induced ROS generation was monitored by confocal microscopic analysis of DCF fluorescence. Data represent three repeated experiments and are shown as mean ± SD (n = 3). […] (D) TRAP^+ MNCs containing more than 3 nuclei were counted. Data represent mean ± S.D., *P < 0.005. Scale bar, 500 μm.\nDCF-DA is oxidized by ROS to the highly fluorescent DCF. After washed with HBSS, the cells were then examined with a laser scanning confocal microscope (LSM510; Zeiss) equipped with an argon laser tuned to an excitation wavelength of 488 nm, an LP505 emission filter (515–540 nm), and a Zeiss Axiovert objective lens. Images were digitized and stored at a resolution of 512 by 512 pixels. Five groups of cells were randomly selected from each sample, and the mean relative fluorescence intensity for each group of cells was measured with a Zeiss vision system and then averaged for all groups. All experiments were repeated at least three times."}, "[5]": {"system": "OVX-induced osteoporotic ddY mice", "assay": "Right femur BMD by DEXA in OVX mice", "assay_type": "in vivo", "details": "oral once daily 28 days"}, "Mature OCs [6]": {"system": "Mature OCs", "assay": "Bone resorption assay on dentine discs", "assay_type": "cell-based, C57BL/6 mice", "details": "10 μM, 24 hours", "experimental": "The cells were removed from the dentine discs and the dentine discs were stained with hematoxylin. Pit areas were photographed under a light microscope and analyzed using Image-Pro Plus version 4.5 software (Media-Cybernetics, Rockville, MD, USA). […]\nScale bar, 500 μm. (C,D) Mature OCs were generated with M-CSF and RANKL, cells were seeded onto dentine discs and further cultured with […]\nCells were stained with hematoxylin for visualization of pit formation (C). The area of resorption pits were measured with Image-Pro Plus 4.5 (D). Scale bar, 500\nμm. Data represent mean ± S.D., n.s., not significant. […]"}, "BMMs [7]": {"system": "BMMs", "assay": "RANKL-induced signaling, immunoblot of phospho-ERK, p38, JNK, IκBα", "assay_type": "cell-based, C57BL/6 mice", "details": "BMMs pretreated 1 hour", "text": "Data represent mean ± SD. […] Actin serves as a loading control."}, "[8]": {"assay": "Direct ROS (H2O2) scavenging in vitro", "details": "20 μM compound, 1 mM H2O2", "text": "Based on the notion that the differentiation of OCs is mediated by Nox1/2/4-dependent ROS generation, we have performed a high throughput enzyme inhibitor screening assay to identify chemical compounds having Nox1/2/4 inhibitory activity for the development of an anti-osteoporosis agent. Purified Drosophila membranes expressing human Nox1, Nox2, or Nox4 were used to monitor ROS production by determining the oxidation of lucigenin, evident as chemiluminescence, in the absence or presence of chemical compound[18]. A chemical library containing 31,000 compounds was screened to identify Nox inhibitors. […] (Fig. 1B, Supplementary Fig. S2). […] Moreover, we investigated whether Ewha-18278 can directly scavenge ROS in vitro.\nas §1, §2, §3, §4, §5"}, "[9]": {"details": "2.5 mg/kg oral once daily 28 days"}, "[10]": {"details": "5 mg/kg oral once daily 28 days"}, "[11]": {"details": "10 mg/kg oral once daily 28 days"}, "[12]": {"details": "20 mg/kg oral once daily 28 days"}}, "note": "Structures can show the parent of a compound that is named as a salt. Marks after values point to notes of the source that are not given here.", "data": [{"compound": "CCCc1c(-c2ccccc2)nn(-c2ccccn2)c1O", "note": "[Ewha-18278, 3-phenyl-1-(pyridin-2-yl)-4-propyl-1H-5-hydroxypyrazole HCl]", "values": [{"measurement": "phagocytosis of FITC-zymosan (MFI) vs DMSO", "setting": "BMMs [1]", "result": "n.s."}, {"measurement": "apoptosis of OCs", "setting": "Mature OCs [2]", "result": "had no effect on apoptosis"}, {"measurement": "inhibitory activity on glucose oxidase", "setting": "glucose oxidase", "result": "no inhibitory activities"}, {"measurement": "BV/TV (trabecular bone volume)", "setting": "[3]; [9]", "result": "19.04 ± 3.10 ^a %"}, {"measurement": "Ct.Th (cortical bone thickness)", "setting": "[3]; [9]", "result": "122.04 ± 11.96 ^a μm"}, {"measurement": "N.OC/BS (osteoclast cell number, N/epiphyseal)", "setting": "[3]; [9]", "result": "14.13 ± 3.44 ^a numbers"}, {"measurement": "Tb.N (trabecular bone number, N/epiphyseal)", "setting": "[3]; [9]", "result": "8.63 ± 1.60 ^a numbers"}, {"measurement": "Tb.Th (trabecular bone thickness)", "setting": "[3]; [9]", "result": "34.89 ± 5.16 ^a μm"}, {"measurement": "BV/TV (trabecular bone volume)", "setting": "[3]; [10]", "result": "29.39 ± 2.41 ^bc %"}, {"measurement": "Ct.Th (cortical bone thickness)", "setting": "[3]; [10]", "result": "137.51 ± 10.96 ^ac μm"}, {"measurement": "Tb.N (trabecular bone number, N/epiphyseal)", "setting": "[3]; [10]", "result": "12.50 ± 1.31 ^ac numbers"}, {"measurement": "Tb.Th (trabecular bone thickness)", "setting": "[3]; [10]", "result": "48.34 ± 6.87 ^ac μm"}, {"measurement": "BV/TV (trabecular bone volume)", "setting": "[3]; [11]", "result": "33.36 ± 4.35 ^c %"}, {"measurement": "Ct.Th (cortical bone thickness)", "setting": "[3]; [11]", "result": "182.11 ± 12.48 ^c μm"}, {"measurement": "N.OC/BS (osteoclast cell number, N/epiphyseal)", "setting": "[3]; [11]", "result": "8.13 ± 2.23 ^ac numbers"}, {"measurement": "Tb.N (trabecular bone number, N/epiphyseal)", "setting": "[3]; [11]", "result": "15.00 ± 2.00 ^ac numbers"}, {"measurement": "Tb.Th (trabecular bone thickness)", "setting": "[3]; [11]", "result": "53.36 ± 5.94 ^ac μm"}, {"measurement": "BV/TV (trabecular bone volume)", "setting": "[3]; [12]", "result": "33.78 ± 3.47 ^c %"}, {"measurement": "Ct.Th (cortical bone thickness)", "setting": "[3]; [12]", "result": "194.28 ± 15.50 ^c μm"}, {"measurement": "N.OC/BS (osteoclast cell number, N/epiphyseal)", "setting": "[3]; [12]", "result": "6.88 ± 2.36 ^ac numbers"}, {"measurement": "Tb.N (trabecular bone number, N/epiphyseal)", "setting": "[3]; [12]", "result": "17.13 ± 1.81 ^c numbers"}, {"measurement": "Tb.Th (trabecular bone thickness)", "setting": "[3]; [12]", "result": "55.98 ± 7.15 ^ac μm"}, {"measurement": "RANKL-mediated ROS generation", "setting": "BMMs [4]; RANKL 200 ng/ml 10 minutes", "result": "reduced RANKL-mediated ROS generation in dose- and time-dependent manners"}, {"measurement": "concentration at plateau of inhibition of RANKL-dependent ROS generation", "setting": "BMMs [4]; after 60 min", "result": 10, "unit": "µM"}, {"measurement": "BMD of femur compared to OVX control", "setting": "[5]", "result": "dramatic increased BMD"}, {"measurement": "bone resorption activity of OCs", "setting": "Mature OCs [6]", "result": "did not affect"}, {"measurement": "activation of MAPKs (JNK, p38, ERK) and phosphorylation of IκBα", "setting": "BMMs [7]", "result": "suppressed activation"}, {"measurement": "change in hydrogen peroxide concentration (ROS scavenging)", "setting": "[8]", "result": "had no effect"}]}]}
